In ChEMBL document CHEMBL5303573, “Mapping human microbiome drug metabolism by gut bacteria and their genes” (Nature, 2019):

Assays:
[1] = The drug is tested on Bifidobacterium ruminantium strain: fecal isolate for biotransformation. The drug concentrations were measured before and after a 12-h incubation by liquid-chromatography-coupled mass spectrometry (LC–MS); settings: 2 µM
[2] = The drug is tested on Bacteroides caccae strain: ATCC43185 for biotransformation. The drug concentrations were measured before and after a 12-h incubation by liquid-chromatography-coupled mass spectrometry (LC–MS); settings: 2 µM
[3] = The drug is tested on Bacteroides dorei strain: DSM17855 for biotransformation. The drug concentrations were measured before and after a 12-h incubation by liquid-chromatography-coupled mass spectrometry (LC–MS); settings: phocaeicola dorei, 2 µM
[4] = The drug is tested on Anaerotruncus colihominis strain: DSM17241 for biotransformation. The drug concentrations were measured before and after a 12-h incubation by liquid-chromatography-coupled mass spectrometry (LC–MS); settings: 2 µM
[5] = The drug is tested on Enterococcus faecalis strain: V583 for biotransformation. The drug concentrations were measured before and after a 12-h incubation by liquid-chromatography-coupled mass spectrometry (LC–MS); settings: 2 µM
[6] = The drug is tested on Ruminococcus lactaris strain: ATCC29176 for biotransformation. The drug concentrations were measured before and after a 12-h incubation by liquid-chromatography-coupled mass spectrometry (LC–MS); settings: 2 µM
[7] = bacteroides thetaiotaomicron, 12 h, 2 µM
Description: The drug is tested on Bacteroides thetaiotaomicron strain: 3731 for biotransformation. The drug concentrations were measured before and after a 12-h incubation by liquid-chromatography-coupled mass spectrometry (LC–MS)

Structure (SMILES) | Bacterial Biotransformation [1] | Bacterial Biotransformation [2] | Bacterial Biotransformation [3] | Bacterial Biotransformation [4] | Bacterial Biotransformation [5] | Bacterial Biotransformation [6] | Bacterial Biotransformation [7]
CSc1ccc2c(c1)C(N1CCN(C)CC1)Cc1ccccc1S2.O=C(O)/C=C\C(=O)O (stereo not given) | Compound NOT metabolized | Compound NOT metabolized | Compound NOT metabolized | Compound metabolized | Compound NOT metabolized | Compound NOT metabolized | Compound NOT metabolized
CCOC(=O)[C@H](CCc1ccccc1)N[C@@H](C)C(=O)N1Cc2ccccc2C[C@H]1C(=O)O | Compound metabolized | Compound metabolized | Compound metabolized | – | Compound NOT metabolized | Compound NOT metabolized | Compound metabolized
N[C@@H](Cc1ccc(N(CCCl)CCCl)cc1)C(=O)O | Compound metabolized | Compound metabolized | Compound metabolized | Compound metabolized | Compound metabolized | Compound metabolized | Compound metabolized
NC12CC3CC(CC(C3)C1)C2 [AMANTADINE] | Compound metabolized | Compound NOT metabolized | Compound NOT metabolized | Compound NOT metabolized | Compound NOT metabolized | Compound NOT metabolized | Compound NOT metabolized
CCN1CCCC1CNC(=O)c1cc(S(=O)(=O)CC)c(N)cc1OC (stereo not given) [AMISULPRIDE] | Compound NOT metabolized | Compound NOT metabolized | Compound NOT metabolized | Compound NOT metabolized | Compound NOT metabolized | Compound NOT metabolized | Compound NOT metabolized
CN1CCc2cccc3c2[C@H]1Cc1ccc(O)c(O)c1-3 [APOMORPHINE] | Compound NOT metabolized | Compound NOT metabolized | Compound NOT metabolized | Compound NOT metabolized | Compound NOT metabolized | Compound NOT metabolized | Compound NOT metabolized
CCOC(=O)[C@H](CCc1ccccc1)N[C@H]1CCc2ccccc2N(CC(=O)O)C1=O [BENAZEPRIL] | Compound NOT metabolized | Compound metabolized | Compound metabolized | Compound NOT metabolized | Compound metabolized | Compound NOT metabolized | Compound metabolized
CC(C)(Oc1ccc(CCNC(=O)c2ccc(Cl)cc2)cc1)C(=O)O [BEZAFIBRATE] | Compound metabolized | Compound metabolized | Compound metabolized | Compound NOT metabolized | Compound NOT metabolized | Compound NOT metabolized | Compound metabolized
OC(CCN1CCCCC1)(c1ccccc1)C1CC2C=CC1C2 (stereo not given) [BIPERIDEN] | Compound NOT metabolized | Compound NOT metabolized | Compound NOT metabolized | Compound NOT metabolized | Compound NOT metabolized | Compound NOT metabolized | Compound NOT metabolized
CC(C)NCC(O)COc1ccc(COCCOC(C)C)cc1.CC(C)NCC(O)COc1ccc(COCCOC(C)C)cc1.O=C(O)/C=C/C(=O)O (stereo not given) [BISOPROLOL FUMARATE] | Compound NOT metabolized | Compound NOT metabolized | Compound NOT metabolized | Compound NOT metabolized | Compound NOT metabolized | Compound NOT metabolized | Compound NOT metabolized
CC(C)C[C@H]1C(=O)N2CCC[C@H]2[C@]2(O)O[C@](NC(=O)[C@@H]3C=C4c5cccc6[nH]c(Br)c(c56)C[C@H]4N(C)C3)(C(C)C)C(=O)N12.CS(=O)(=O)O [BROMOCRIPTINE MESYLATE] | Compound metabolized | Compound metabolized | Compound metabolized | Compound metabolized | – | Compound metabolized | Compound metabolized
CCCC1O[C@@H]2C[C@H]3[C@@H]4CCC5=CC(=O)C=C[C@]5(C)[C@H]4[C@@H](O)C[C@]3(C)[C@]2(C(=O)CO)O1 (stereo not given in full) [BUDESONIDE] | Compound NOT metabolized | Compound NOT metabolized | Compound metabolized | Compound NOT metabolized | Compound NOT metabolized | Compound NOT metabolized | Compound metabolized
CCN(CC)CCOCCOC(=O)C1(c2ccccc2)CCCC1.O=C(O)CC(O)(CC(=O)O)C(=O)O [CARBETAPENTANE CITRATE] | Compound metabolized | Compound metabolized | Compound metabolized | Compound metabolized | Compound metabolized | Compound NOT metabolized | Compound metabolized
CC(=O)O[C@]1(C(C)=O)CC[C@H]2[C@@H]3C=C(Cl)C4=CC(=O)[C@@H]5C[C@@H]5[C@]4(C)[C@H]3CC[C@@]21C [CYPROTERONE ACETATE] | Compound NOT metabolized | Compound NOT metabolized | Compound metabolized | Compound metabolized | Compound NOT metabolized | Compound NOT metabolized | Compound metabolized
CN1C[C@H](C(=O)N[C@]2(C)O[C@@]3(O)[C@@H]4CCCN4C(=O)[C@H](Cc4ccccc4)N3C2=O)C=C2c3cccc4[nH]cc(c34)C[C@H]21.CN1C[C@H](C(=O)N[C@]2(C)O[C@@]3(O)[C@@H]4CCCN4C(=O)[C@H](Cc4ccccc4)N3C2=O)C=C2c3cccc4[nH]cc(c34)C[C@H]21.O=C(O)C(O)C(O)C(=O)O [ERGOTAMINE TARTRATE] | Compound metabolized | Compound metabolized | Compound metabolized | Compound metabolized | Compound NOT metabolized | Compound metabolized | Compound metabolized
CCOc1ccc2nc(S(N)(=O)=O)sc2c1 [ETHOXZOLAMIDE] | Compound metabolized | Compound metabolized | Compound NOT metabolized | Compound metabolized | Compound metabolized | Compound metabolized | Compound metabolized
CNCCC(Oc1ccc(C(F)(F)F)cc1)c1ccccc1 (stereo not given) [FLUOXETINE] | Compound metabolized | Compound metabolized | Compound metabolized | Compound NOT metabolized | Compound metabolized | Compound metabolized | Compound metabolized
CC(Oc1c(Cl)cccc1Cl)C1=NCCN1 (stereo not given) [LOFEXIDINE] | Compound metabolized | Compound metabolized | Compound metabolized | Compound metabolized | Compound NOT metabolized | Compound metabolized | Compound metabolized
CC[C@H](C)C(=O)O[C@H]1C[C@@H](C)C=C2C=C[C@H](C)[C@H](CC[C@@H]3C[C@@H](O)CC(=O)O3)[C@H]21 [LOVASTATIN] | Compound NOT metabolized | Compound NOT metabolized | Compound metabolized | Compound metabolized | Compound metabolized | Compound NOT metabolized | Compound NOT metabolized
CC[C@@H](CO)NC(=O)[C@@H]1C=C2c3cccc4c3c(cn4C)C[C@H]2N(C)C1.O=C(O)/C=C\C(=O)O [METHYSERGIDE MALEATE] | Compound metabolized | Compound metabolized | Compound metabolized | Compound metabolized | Compound metabolized | Compound metabolized | Compound metabolized
Cc1nc2n(c(=O)c1CCN1CCC(c3noc4cc(F)ccc34)CC1)CCCC2O (stereo not given) [PALIPERIDONE] | Compound metabolized | Compound metabolized | Compound metabolized | Compound metabolized | – | Compound metabolized | Compound metabolized
CNC(=C[N+](=O)[O-])NCCSCc1ccc(CN(C)C)o1 [RANITIDINE] | Compound metabolized | – | Compound metabolized | Compound metabolized | Compound metabolized | Compound metabolized | Compound NOT metabolized
